{"source": "patent US20190359681A1", "about": "“NOVEL MINOR HISTOCOMPATIBILITY ANTIGENS AND USES THEREOF” (UNIVERSITÉ DE MONTRÉAL, priority 2015, published 2019)", "test_system": "T cells from MiHA-negative individuals", "test": "Immunogenicity: T cells primed with MiHA-pulsed autologous dendritic cells, IFNγ ELISpot and intracellular cytokine staining", "format": "cell-based, human", "settings": "T cells from four MiHA-negative individuals primed with autologous dendritic cells pulsed with synthetic MiHA; re-exposed to MiHA vs no peptide or irrelevant peptide", "description": "Determination of the immunogenicity of the identified MiHAs. T cells and monocytes were purified from 100-150×10^6 PBMCs obtained from MiHA-negative individuals using MACS® cell separation columns (Miltenyi Biotec®) or EasySep™ kits (Stemcell Technologies®). Monocyte-derived dendritic cells were generated as previously described (3) and matured with GM-CSF, IL-4, PGE2, TNFα, IL-1β, IL-6 and IFNγ. These dendritic cells were then irradiated at 40 Gy and pulsed with 2 μg/mL of the synthetic MiHA peptide (GLRX3-1^S, WDR27-1^L, MIIP-2^E, or RASSF1-1^S) or an irrelevant peptide (Epstein-Barr virus LMP2^426-434) that was used a negative control. Pulsed or unpulsed dendritic cells were then co-cultured with previously enriched autologous T cells (5×10^5/well) in 48-well plates in advanced RPMI medium supplemented with 10% of human serum, 1% of L-Glutamine and 30 ng/mL of IL-21 at a 1:4 (stimulator:effector) ratio. Supplemented media with IL-7 and IL-15 was added after 3, 5 and 7 days of culture and cells were transferred in 12-well plates and 6-well plates at day 5 and 7, respectively. After 10 days of culture, T cells were harvested to determine antigen reactivity with ELISpot for IFNγ and polyfunctional intracellular cytokine staining. Briefly, ELISpot analysis was performed according to the manufacturer's instructions (MABtech®) and intracellular staining was performed after restimulation with 5 μg/mL of peptide in the presence of Brefeldin A for 4 hours. […] Acquisition was performed with a BD™ LSR II flow cytometer and data were analyzed using Flowlogic™ software (Inivai Technologies®).\nAs a proof of principle, the immunogenicity of four novel MiHAs was tested: GLRX3-1^S, MIIP-2^E, RASSF1-1^S and WDR27-1^L (FIGS. 3A-3D). […] Read-out of antigen-reactivity was assessed by ELISpot (FIG. 3A) and intracellular staining assays (FIGS. 3B-3D)."}
{"substance": "FLS/PSANEHL [GLRX3-1^S, synthetic peptide tested for immunogenicity]", "values": [{"measurement": "cytokine production by primed T cells (antigen-reactivity by ELISpot and intracellular staining)", "result": "produced cytokines in a MiHA-specific fashion in all tested donors"}]}
{"substance": "EESAVPE/KRSW (EESAVPERSW) [MIIP-2^E]", "values": [{"measurement": "cytokine production by primed T cells (antigen-reactivity by ELISpot and intracellular staining)", "result": "produced cytokines in a MiHA-specific fashion in all tested donors"}]}
{"substance": "S/AEIEQKIKEY (SEIEQKIKEY) [RASSF1-1^S]", "values": [{"measurement": "cytokine production by primed T cells (antigen-reactivity by ELISpot and intracellular staining)", "result": "produced cytokines in a MiHA-specific fashion in all tested donors"}]}
